Where two headings read alike, the source gives them in different places.
Experiments:
[1] = Table 3; free energy of solvation in cyclohexane, experimental; cited from earlier work
[2] = CHEX/H2O partition coefficient (log D) predicted with the QM-parameterized force field model (ARROW FF)
In short: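 Cyclohexane/water partition coefficients were predicted by molecular simulation with a QM-parameterized force field, with bonded force constants and equilibrium values fitted to MP2/aug-cc-pVTZ energies. Solutes carried neutral functional groups, and results from four independent groups were averaged.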

[3] = Free energy of hydration by Polarizable Continuum Model (PCM); conditions: absolute error vs Exp (hydration)
In short: (§1)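 Implicit-solvent predictions of hydration free energy. MolPro supplied the COSMO solvation energies across the dataset. Predicted SMD and PCM values were received rather than computed here. Coverage for SMD, PCM and COSMO-RS matches the QM-parameterized force-field subset.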

[4] = implicit solvent model, values received; cited from earlier work
[5] = Free energy of hydration predicted with the QM-parameterized force field model (ARROW FF), classical MD and PIMD simulation in a water box; conditions: for water Arrow MD Error / water Arrow PIMD8 Error: Table 3; for water Arrow MD Error: absolute error of MD hydration free energy vs experiment; for water Arrow PIMD8 Error: absolute error of PIMD8 hydration free energy vs experiment; for Arrow PIMD8 Error: absolute error vs Exp (hydration)
In short: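 Classical and PIMD runs (MTS integrator, MTTK barostat at 1 atm) followed minimization and 50 ps equilibration, with 1 ns NPT production per window. Fifteen unequally spaced lambda windows removed all solute-solvent interactions simultaneously in a 32 Å water box. Hydration free energy computed by Bennett acceptance ratio and thermodynamic integration.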

[6] = Free energy of hydration by COSMO implicit solvent model (MolPro ver. 2012); conditions: absolute error vs Exp (hydration)
In short: as §1

[7] = Free energy of hydration by Solvation Model Dielectric (SMD) implicit solvent model; conditions: absolute error vs Exp (hydration)
In short: as §1

[8] = Table 3; CHEX/H2O partition coefficient, experimental; cited from earlier work
[9] = implicit solvent model, values received; cited from earlier work; remark: listed apart in the source
[10] = Table 3; free energy of hydration, experimental; cited from earlier work
[11] = Free energy of hydration by COSMO-RS
In short: as §1

[12] = Free energy of hydration by Free Energy Machine Learning Model (FML); conditions: absolute error vs Exp (hydration)
Excerpt: Machine learning models can be used for free energy determination.

[13] = Table 3, absolute error of MD log D vs experiment
[14] = Table 3, absolute error of PIMD log D vs experiment

CCCC(C)=O [2-Pentanone]
CHEX Exp (solvation) [1]: -4.19 kcal/mol | log D Arrow MD Error [2]: 0.22 | log D Arrow PIMD Error [2]: 0.20 | PCM Error [3]: 0.48 kcal/mol | SMD free energy of hydration [4]: -3.70 kcal/mol | water Arrow MD Error [5]: 0.67 kcal/mol | water Arrow PIMD8 Error [5]: 0.01 kcal/mol | Arrow PIMD8 Error [5]: 0.01 kcal/mol | COSMO/Molpro Error [6]: 4.22 kcal/mol | SMD Error [7]: 0.18 kcal/mol | Exp (log D) [8]: 0.49 | PCM free energy of hydration [9]: -4.00 kcal/mol | water Exp (hydration) [10]: -3.52 kcal/mol | COSMO-RS error [11]: 0.07 kcal/mol | FML error [12]: 0.29 kcal/mol

CCC(=O)CC [3-Pentanone]
CHEX Exp (solvation) [1]: -4.30 kcal/mol | log D Arrow MD Error [2]: 0.32 | log D Arrow PIMD Error [2]: 0.02 | PCM Error [3]: 0.29 kcal/mol | SMD free energy of hydration [4]: -3.50 kcal/mol | water Arrow MD Error [5]: 0.88 kcal/mol | water Arrow PIMD8 Error [5]: 0.23 kcal/mol | Arrow PIMD8 Error [5]: 0.23 kcal/mol | COSMO/Molpro Error [6]: 3.33 kcal/mol | SMD Error [7]: 0.09 kcal/mol | Exp (log D) [8]: 0.65 | PCM free energy of hydration [9]: -3.70 kcal/mol | water Exp (hydration) [10]: -3.41 kcal/mol | COSMO-RS error [11]: 0.06 kcal/mol | FML error [12]: 0.16 kcal/mol

CC(C)=O [Acetone]
CHEX Exp (solvation) [1]: -2.67 kcal/mol | log D Arrow MD Error [2, 13]: 0.01 | log D Arrow PIMD Error [2, 14]: 0.31 | PCM Error [3]: 0.40 kcal/mol | SMD free energy of hydration [4]: -4.10 kcal/mol | water Arrow MD Error [5]: 0.33 kcal/mol | water Arrow PIMD8 Error [5]: 0.31 kcal/mol | Arrow PIMD8 Error [5]: 0.31 kcal/mol | COSMO/Molpro Error [6]: 4.55 kcal/mol | SMD Error [7]: 0.30 kcal/mol | Exp (log D) [8]: −0.83 | PCM free energy of hydration [9]: -4.20 kcal/mol | water Exp (hydration) [10]: -3.80 kcal/mol | COSMO-RS error [11]: 0.90 kcal/mol | FML error [12]: 0.34 kcal/mol

CCCCOC(C)=O [ButylAcetate]
CHEX Exp (solvation) [1]: -4.94 kcal/mol | log D Arrow MD Error [2, 13]: 0.60 | log D Arrow PIMD Error [2, 14]: 0.06 | PCM Error [3]: 1.25 kcal/mol | SMD free energy of hydration [4]: -2.90 kcal/mol | water Arrow MD Error [5]: 0.85 kcal/mol | water Arrow PIMD8 Error [5]: 0.07 kcal/mol | Arrow PIMD8 Error [5]: 0.07 kcal/mol | COSMO/Molpro Error [6]: 4.19 kcal/mol | SMD Error [7]: 0.35 kcal/mol | Exp (log D) [8]: 1.75 | PCM free energy of hydration [9]: -3.80 kcal/mol | water Exp (hydration) [10]: -2.55 kcal/mol | FML error [12]: 0.61 kcal/mol

C1CC1 [Cyclopropane]
PCM Error [3]: 1.35 kcal/mol | SMD free energy of hydration [4]: 0.10 kcal/mol | water Arrow MD Error [5]: 0.30 kcal/mol | water Arrow PIMD8 Error [5]: 0.29 kcal/mol | Arrow PIMD8 Error [5]: 0.29 kcal/mol | COSMO/Molpro Error [6]: 2.05 kcal/mol | SMD Error [7]: 0.65 kcal/mol | PCM free energy of hydration [9]: -0.60 kcal/mol | water Exp (hydration) [10]: 0.75 kcal/mol | COSMO-RS error [11]: 0.40 kcal/mol | FML error [12]: 0.76 kcal/mol

CCOC(C)=O [EthylAcetate]
CHEX Exp (solvation) [1]: -3.55 kcal/mol | log D Arrow MD Error [2]: 0.46 | log D Arrow PIMD Error [2]: 0.13 | PCM Error [3]: 0.58 kcal/mol | SMD free energy of hydration [4]: -3.10 kcal/mol | water Arrow MD Error [5]: 0.28 kcal/mol | water Arrow PIMD8 Error [5]: 0.32 kcal/mol | Arrow PIMD8 Error [5]: 0.32 kcal/mol | COSMO/Molpro Error [6]: 3.95 kcal/mol | SMD Error [7]: 0.02 kcal/mol | Exp (log D) [8]: 0.32 | PCM free energy of hydration [9]: -3.70 kcal/mol | water Exp (hydration) [10]: -3.12 kcal/mol | FML error [12]: 0.02 kcal/mol

CCC(=O)OC [MethylPropionate]
CHEX Exp (solvation) [1]: -3.71 kcal/mol | log D Arrow MD Error [2, 13]: 0.84 | log D Arrow PIMD Error [2, 14]: 0.45 | PCM Error [3]: 0.57 kcal/mol | SMD free energy of hydration [4]: -2.70 kcal/mol | water Arrow MD Error [5]: 0.62 kcal/mol | water Arrow PIMD8 Error [5]: 0.10 kcal/mol | Arrow PIMD8 Error [5]: 0.10 kcal/mol | COSMO/Molpro Error [6]: 3.75 kcal/mol | SMD Error [7]: 0.23 kcal/mol | Exp (log D) [8]: 0.57 | PCM free energy of hydration [9]: -3.50 kcal/mol | water Exp (hydration) [10]: -2.93 kcal/mol | FML error [12]: 0.20 kcal/mol

CCCOC(C)=O [PropylAcetate]
CHEX Exp (solvation) [1]: -4.36 kcal/mol | log D Arrow MD Error [2]: 0.65 | log D Arrow PIMD Error [2]: 0.37 | PCM Error [3]: 0.94 kcal/mol | SMD free energy of hydration [4]: -3.00 kcal/mol | water Arrow MD Error [5]: 0.64 kcal/mol | water Arrow PIMD8 Error [5]: 0.07 kcal/mol | Arrow PIMD8 Error [5]: 0.07 kcal/mol | COSMO/Molpro Error [6]: 4.12 kcal/mol | SMD Error [7]: 0.14 kcal/mol | Exp (log D) [8]: 1.10 | PCM free energy of hydration [9]: -3.80 kcal/mol | water Exp (hydration) [10]: -2.86 kcal/mol | FML error [12]: 0.24 kcal/mol

CCCCC(C)=O [hexa2none]
CHEX Exp (solvation) [1]: -4.77 kcal/mol | log D Arrow MD Error [2, 13]: 0.07 | log D Arrow PIMD Error [2, 14]: 0.11 | PCM Error [3]: 0.72 kcal/mol | SMD free energy of hydration [4]: -3.50 kcal/mol | water Arrow MD Error [5]: 0.69 kcal/mol | water Arrow PIMD8 Error [5]: 0.20 kcal/mol | Arrow PIMD8 Error [5]: 0.20 kcal/mol | COSMO/Molpro Error [6]: 4.43 kcal/mol | SMD Error [7]: 0.22 kcal/mol | Exp (log D) [8]: 1.09 | PCM free energy of hydration [9]: -4.00 kcal/mol | water Exp (hydration) [10]: -3.28 kcal/mol | COSMO-RS error [11]: 0.17 kcal/mol | FML error [12]: 0.07 kcal/mol

Cc1cccc(O)c1 [m-cresol]
CHEX Exp (solvation) [1]: -5.20 kcal/mol | log D Arrow MD Error [2, 13]: 0.65 | log D Arrow PIMD Error [2, 14]: 0.09 | PCM Error [3]: 1.49 kcal/mol | SMD free energy of hydration [4]: -4.80 kcal/mol | water Arrow MD Error [5]: 2.12 kcal/mol | water Arrow PIMD8 Error [5]: 1.03 kcal/mol | Arrow PIMD8 Error [5]: 1.03 kcal/mol | COSMO/Molpro Error [6]: 3.97 kcal/mol | SMD Error [7]: 0.69 kcal/mol | Exp (log D) [8]: −0.21 | PCM free energy of hydration [9]: -4.00 kcal/mol | water Exp (hydration) [10]: -5.49 kcal/mol | FML error [12]: 0.72 kcal/mol

Cc1ccccc1O [o-cresol]
CHEX Exp (solvation) [1]: -6.02 kcal/mol | log D Arrow MD Error [2, 13]: 0.67 | log D Arrow PIMD Error [2, 14]: 0.14 | PCM Error [3]: 2.17 kcal/mol | SMD free energy of hydration [4]: -4.60 kcal/mol | water Arrow MD Error [5]: 1.27 kcal/mol | water Arrow PIMD8 Error [5]: 0.28 kcal/mol | Arrow PIMD8 Error [5]: 0.28 kcal/mol | hydration error ([5]; predicted vs experimental free energy of hydration): -1 kcal/mol | COSMO/Molpro Error [6]: 1.21 kcal/mol | SMD Error [7]: 1.27 kcal/mol | Exp (log D) [8]: 0.11 | PCM free energy of hydration [9]: -3.70 kcal/mol | water Exp (hydration) [10]: -5.87 kcal/mol | FML error [12]: 0.19 kcal/mol

— patent publication US20230129485A1, “SYSTEM AND METHOD FOR DETERMINING MATERIAL PROPERTIES OF MOLECULAR SYSTEMS FROM AN AB-INITIO PARAMETERIZED FORCE-FIELD” (InterX, Inc., priority 2021, published 2023)
